Results from ChEMBL document CHEMBL1201862, “PubChem BioAssay data set” (2004).
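Tested at 5 concentrations; 48 h exposure; 96-well plates; endpoints linearly interpolated, else capped at highest concentration. GI50 = concentration required for 50% inhibition of growth.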 Activity calls are given as the source filed them. No stated cut-off is given here; in the data, active = GI50 up to about 1.1 µM and inactive = higher.

Key:
Assay in all cases: DTP human tumour cell line panel, 48 h
SF-268 = test system: SF-268
TK-10 = test system: TK-10
HCC 2998 = test system: HCC 2998
HCT-116 = test system: HCT-116
ACHN = test system: ACHN
LOX IMVI = test system: LOX IMVI
786-0 = test system: 786-0
U-251 = test system: U-251
HOP-62 = test system: HOP-62
SK-MEL-5 = test system: SK-MEL-5
SK-MEL-28 = test system: SK-MEL-28
M14 = test system: M14
SK-OV-3 = test system: SK-OV-3
OVCAR-3 = test system: OVCAR-3
CAKI-1 = test system: CAKI-1

Measured: GI50

Cc1cc(NS(=O)(=O)c2ccc(Nc3c4ccccc4nc4c(C(=O)NCCN(C)C)cccc34)cc2)no1
inactive: SF-268 1.78 µM | TK-10 35.1 µM | HCC 2998 3.87 µM | HCT-116 4.79 µM | ACHN 3.71 µM | LOX IMVI 1.35 µM | 786-0 3.83 µM | U-251 2.3 µM | HOP-62 2.09 µM | SK-MEL-5 2.49 µM | SK-MEL-28 10.9 µM | M14 5.08 µM

CC(=O)O[C@]12CCCCC1C1(O)C(O)CCCC[C@H]12 (stereo partly specified)
inactive: SK-OV-3 > 100 µM | SF-268 > 100 µM | TK-10 > 100 µM | HCT-116 > 100 µM | ACHN > 100 µM | LOX IMVI > 100 µM | 786-0 > 100 µM | U-251 > 100 µM | HOP-62 > 100 µM | SK-MEL-5 > 100 µM | SK-MEL-28 > 100 µM | M14 > 100 µM

CC(=O)OC12C=CC(=O)N1c1ccccc1C(=O)O2 (stereo unspecified)
inactive: SK-OV-3 > 100 µM | SF-268 > 100 µM | TK-10 > 100 µM | OVCAR-3 > 100 µM | HCC 2998 > 100 µM | HCT-116 > 100 µM | ACHN > 100 µM | LOX IMVI > 100 µM | CAKI-1 > 100 µM | 786-0 > 100 µM | U-251 > 100 µM | HOP-62 > 100 µM | SK-MEL-5 > 100 µM | SK-MEL-28 > 100 µM | M14 > 100 µM

C=CC1(C)CCC(C(C)C(=O)C(C=C(C)C)OC(C)=O)C12C(=O)Oc1ccccc1C2=O (stereo unspecified)
inactive: SK-OV-3 82.2 µM | SF-268 62.1 µM | TK-10 > 100 µM | OVCAR-3 38.9 µM | HCC 2998 82.4 µM | HCT-116 31.1 µM | ACHN 51.5 µM | LOX IMVI 35.7 µM | 786-0 84.1 µM | U-251 38 µM | HOP-62 35.2 µM | SK-MEL-28 > 100 µM | M14 54.2 µM

CCOC(=O)/C(=C/c1ccc(N(C)C)cc1)N(CC)CC
inactive: SK-OV-3 > 100 µM | SF-268 76.6 µM | TK-10 > 100 µM | OVCAR-3 24.5 µM | HCC 2998 > 100 µM | HCT-116 48.1 µM | ACHN 76.2 µM | LOX IMVI 27.7 µM | CAKI-1 > 100 µM | 786-0 > 100 µM | U-251 > 100 µM | HOP-62 > 100 µM | SK-MEL-5 > 10 µM | SK-MEL-28 > 100 µM | M14 > 100 µM

C=CCCC(C)N(C(=O)OC(C)(C)C)S(=O)(=O)c1ccc(C)cc1 (stereo unspecified)
inactive: SK-OV-3 > 100 µM | SF-268 > 100 µM | TK-10 > 100 µM | OVCAR-3 > 100 µM | HCC 2998 > 100 µM | HCT-116 > 100 µM | ACHN > 100 µM | LOX IMVI > 100 µM | CAKI-1 > 100 µM | 786-0 > 100 µM | U-251 > 100 µM | HOP-62 > 100 µM | SK-MEL-28 > 100 µM | M14 > 100 µM
